# Assay results as given in US20260364080A1, “PYRAZOLO-PYRIMIDINONE COMPOUNDS FOR USE IN METHODS OF INHIBITING WEE1 A KINASE” (Acrivon Therapeutics, Inc., priority 2023, published 2026).
# Like-named read-outs stand apart in the source and are kept apart here.
# How the values were obtained:
# [1] = target: T1, recombinant human Wee1A kinase (Homo sapiens, UniProt P30291); assay: Wee1A kinase binding assay (LanthaScreen Eu time-resolved FRET)
# T1 construct: full length Wee1 kinase was expressed by baculovirus in insect cells; purchased Invitrogen PV3817; host or cells: insect cells (baculovirus)
# T1 sequence (P30291 whole entry): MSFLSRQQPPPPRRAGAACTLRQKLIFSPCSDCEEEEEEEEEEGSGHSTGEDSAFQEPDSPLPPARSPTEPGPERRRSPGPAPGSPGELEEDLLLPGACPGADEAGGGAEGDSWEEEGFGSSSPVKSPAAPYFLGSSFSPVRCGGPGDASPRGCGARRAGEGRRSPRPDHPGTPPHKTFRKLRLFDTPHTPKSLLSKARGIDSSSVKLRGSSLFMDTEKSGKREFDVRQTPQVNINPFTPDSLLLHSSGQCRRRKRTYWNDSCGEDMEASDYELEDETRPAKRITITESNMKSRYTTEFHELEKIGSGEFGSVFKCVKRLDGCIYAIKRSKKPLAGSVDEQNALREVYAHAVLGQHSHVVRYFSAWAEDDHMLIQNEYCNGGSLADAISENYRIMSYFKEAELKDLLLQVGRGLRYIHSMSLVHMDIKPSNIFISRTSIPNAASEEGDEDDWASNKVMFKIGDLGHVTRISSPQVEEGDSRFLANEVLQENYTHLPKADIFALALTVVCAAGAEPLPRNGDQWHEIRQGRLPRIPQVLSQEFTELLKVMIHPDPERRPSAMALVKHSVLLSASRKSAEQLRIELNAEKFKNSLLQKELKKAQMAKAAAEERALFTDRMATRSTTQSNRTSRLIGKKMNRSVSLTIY
# Protocol: This time resolved-FRET binding assay was performed in white 384-well low volume plates (Greiner, cat #784075), at room temperature in kinase buffer A (KBA; Invitrogen cat #PV3189), consisting of 50 mM HEPES-NaOH (pH 7.5), 0.01% Brij-35, 10 mM MgCl2, and 1 mM EGTA. 5 μL of compound (diluted in reaction buffer, to 1% DMSO) were added to various wells in the plate, followed by 5 μL each of recombinant human Wee1A kinase (full length Wee1 kinase was expressed by baculovirus in insect cells using a N-terminal GST tag (MW: 99.1 kDa) (Invitrogen cat #PV3817) and LanthaScreen Eu-anti-GST antibody (Invitrogen, cat #PV5594). After this, 5 μL of kinase tracer 178 (Invitrogen, cat #PV5593) was added to the plate and the plate was incubated for 60 minutes at room temperature. The final assay conditions in each well were: 30 nM tracer 178, 5 nM Wee1A kinase and 2 nM Eu-labeled antibody in total assay volume of 15 μL. An Envision 2104 (Perkin-Elmer) Plate Reader with the following time-resolve fluorescence setting was used for performing LanthaScreen kinase binding assay. • Excitation 320 nm (30 nm bandpass) • Kinase Tracer Emission 665 nm (10 nm bandpass) • LanthaScreen Eu-anti-Tag Antibody Emission 615 nm (10 nm bandpass) • Dichroic Mirror Instrument dependent • Delay Time 100 μs • Integration Time 200 μs
# (§1) To calculate the emission ratio, the acceptor/tracer emission ([…]) was divided by the antibody/donor emission ([…]) and the average of duplicate measurement was used for calculations. Data plotting, analysis of binding, and curve fitting was done using Excel add-in XLfit version 5.5.0.5 (IDBS, Guildford, United Kingdom). […] “NT” means not tested.
# [2] = target: T2, Myt1 kinase (recombinant PMYT-1) (Homo sapiens, UniProt Q99640); assay: Myt1 kinase binding assay (LanthaScreen Eu Kinase Binding Assay)
# T2 construct: full length PMYT-1 was expressed by baculovirus in insect cells; purchased Invitrogen A30984; host or cells: insect cells (baculovirus)
# T2 sequence (Q99640 1-499): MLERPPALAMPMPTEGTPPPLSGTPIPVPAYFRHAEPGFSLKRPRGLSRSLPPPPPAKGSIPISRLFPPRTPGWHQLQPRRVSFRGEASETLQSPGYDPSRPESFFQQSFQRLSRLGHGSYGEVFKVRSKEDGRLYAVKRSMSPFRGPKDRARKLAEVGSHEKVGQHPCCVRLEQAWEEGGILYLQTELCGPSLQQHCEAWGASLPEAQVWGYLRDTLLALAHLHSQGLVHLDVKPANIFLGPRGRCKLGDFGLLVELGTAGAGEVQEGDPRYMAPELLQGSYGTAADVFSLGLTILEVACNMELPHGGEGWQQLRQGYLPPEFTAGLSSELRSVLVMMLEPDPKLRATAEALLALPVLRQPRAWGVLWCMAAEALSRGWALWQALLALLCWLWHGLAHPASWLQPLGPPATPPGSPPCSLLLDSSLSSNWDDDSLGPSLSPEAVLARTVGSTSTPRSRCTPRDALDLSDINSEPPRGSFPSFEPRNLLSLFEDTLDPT
# Protocol: as §1
# We used a LanthaScreen Europium (Eu) Kinase Binding Assay to determine the binding affinities (IC50) of compounds to Myt1 kinase. […] “NT” designates that the compound was not tested in this assay.
# [3] = target: T3, Wee1A kinase (CDK1 Tyr15 phosphorylation in ACHN renal cell carcinoma cells) (Homo sapiens, UniProt P30291); assay: High-content imaging of pCdk1 Y15, Wee1A kinase target engagement in ACHN cells; assay type: cell-based
# T3 construct: pCDK1 Tyr15 immunofluorescence read-out
# T3 sequence (P30291 whole entry): as the sequence (P30291 whole entry) above
# Protocol: Each of an ACHN renal cell carcinoma cell line (ATCC) and a DAOY medulloblastoma cell line, and an A427 lung cancer line were cultured in Minimum Essential Medium Eagle supplemented with 10% fetal calf serum (Sigma), 1% Penicillin-Streptomycin and 10 mM HEPES buffer (HyClone). Cell cultures were kept in a humidified incubator at 37 °C and 5% CO2. Cells were routinely tested for Mycoplasma contamination.
# For target engagement assessment of Wee1A kinase inhibition, high-content imaging of ACHN renal cell carcinoma cells was used for quantification of CDK1 phosphorylated on tyrosine 15 by immunofluorescence (“IF”). 20,000 cells per well were seeded in tissue culture treated 96 well plates and treated with compounds at concentrations ranging from 7 to 5,000 nM or from 0.3 to 200 nM for 4h. Cells were fixated for 15 minutes in 4% paraformaldehyde solution, washed in PBS and permeabilized using 0.2% Triton X-100. Blocking was performed for 1 h at RT using Blocker FL Fluorescent Blocking Buffer (Thermo Scientific), thereafter cells were incubated with primary antibody (rabbit anti-pCDK1 Y^15, #4539, Cell Signaling Technology) at 4 °C ON. Alexa Fluor Plus 647 labelled goat anti-rabbit (A32733, Thermo Scientific) was used as secondary antibody. After washing in PBS, nuclei were stained with DAPI solution for 10 min at RT, protected from light. Cells were imaged using an ImageXpress Pico automated imaging system and CellReporter Xpress software (Molecular Devices). The percentage of cells with nuclear positivity for pCdk1 Y^15 compared to DMSO control was determined for each well and drug dose response curves and EC50 values were calculated and visualized using GraphPad Prism. Target engagement for Wee1A kinase can also be measured using the same AlphaLISA assay in OVCAR3 cells, an ovarian cancer cell line. NIH:OVCAR-3 (OVCAR3) cells are cultured in RPMI-1640 medium supplemented with 0.01 mg/ml insulin, 20% FBS, 1% Penicillin-Streptomycin and 10 mM HEPES buffer. 14,000 cells per well are seeded into 96 well tissue culture plates in full medium. Twenty-four hours post seeding, cells are treated with compound for 4 hours at concentrations ranging from 0.017 nM to 1000 nM.
# [4] = 30 nM tracer 178, 5 nM Wee1A kinase, 2 nM Eu-labeled antibody, 60 minutes at room temperature, read-out: Wee1A kinase Binding IC50
# [5] = 3 nM tracer 178, 2.5 nM PMYT-1, 1 nM Eu-labeled antibody, read-out: Myt1 kinase Binding IC50
# [6] = 4 h treatment, nuclear positivity for pCdk1 Y15 vs DMSO control, read-out: CDK1 Tyr15 Phosphorylation EC50
# [7] = Myt1 kinase Binding IC50, 3 nM tracer 178, 2.5 nM PMYT-1, 1 nM Eu-labeled antibody
# [8] = read-out: CDK1 Tyr15 Phosphorylation EC50, 4 h treatment, nuclear positivity for pCdk1 Y15 vs DMSO control
SMILES,"IC50 [1, 4]","IC50 [2, 5]","EC50 [3, 6]",IC50 [1],"IC50 [2, 7]","EC50 [3, 8]"
"C=CCn1c(=O)c2cnc(Nc3cnn(CCC)c3)nc2n1-c1cccc(OC2CCNCC2)n1 [Compound 179, 2-allyl-1-[6-(4-piperidyloxy)-2-pyridyl]-6-(1-propyl-4-pyrazolylamino)-1,2-dihydro-3H-1,2,5,7-tetraazainden-3-one]",< 10 nM,> 500 nM,> 1000 nM,–,–,–
"C=CCn1c(=O)c2cnc(Nc3cncc(F)c3)nc2n1-c1cccc(OC2CCNCC2)n1 [Compound 329, 2-allyl-6-(5-fluoro-3-pyridylamino)-1-[6-(4-piperidyloxy)-2-pyridyl]-1,2-dihydro-3H-1,2,5,7-tetraazainden-3-one]",< 10 nM,20 to 100 nM,500 to 1000 nM,–,–,–
C=CCn1c(=O)c2cnc(Nc3ccc4nn(CC)cc4c3)nc2n1-c1cccc(OC2CCNCC2)n1 [Compound 276],< 10 nM,20 to 100 nM,< 100 nM,–,–,–
"C=CCn1c(=O)c2cnc(Nc3cc(Cl)cc(Br)c3)nc2n1-c1cccc(NC2CCNCC2)n1 [Compound 144, 6-[(3-bromo-5-chlorophenyl)amino]-1-{6-[(piperidin-4-yl)amino]pyridin-2-yl}-2-(prop-2-en-1-yl)-1H,2H,3H-pyrazolo[3,4-d]pyrimidin-3-one]",< 10 nM,> 500 nM,500 to 1000 nM,–,–,–
"C=CCn1c(=O)c2cnc(Nc3cnn(CCC)c3)nc2n1-c1cccc(N(C)C2CCN(C)CC2)n1 [Compound 177, 1-{6-[N-methyl(1-methyl-4-piperidyl)amino]-2-pyridyl}-2-allyl-6-(1-propyl-4-pyrazolylamino)-1,2-dihydro-3H-1,2,5,7-tetraazainden-3-one]",–,–,–,< 10 nM,> 500 nM,100 to 500 nM
"C=CCn1c(=O)c2cnc(Nc3ccc(Cl)cc3)nc2n1-c1cccc(N[C@@H]2CCCNC2)n1 [Compound 166, 1-{6-[(R)-3-piperidylamino]-2-pyridyl}-2-allyl-6-(p-chlorophenylamino)-1,2-dihydro-3H-1,2,5,7-tetraazainden-3-one]",< 10 nM,100 to 500 nM,> 1000 nM,–,–,–
"C=CCn1c(=O)c2cnc(Nc3cncc(Cl)c3)nc2n1-c1cccc(OC2CCN(C)CC2)n1 [Compound 323, 2-allyl-6-(5-chloro-3-pyridylamino)-1-[6-(1-methyl-4-piperidyloxy)-2-pyridyl]-1,2-dihydro-3H-1,2,5,7-tetraazainden-3-one]",< 10 nM,20 to 100 nM,100 to 500 nM,–,–,–
"C=CCn1c(=O)c2cnc(Nc3ccc(C(F)(F)F)cc3)nc2n1-c1cccc(NC2CCNCC2)n1 [Compound 131, 2-allyl-1-[6-(4-piperidylamino)-2-pyridyl]-6-[p-(trifluoromethyl)phenylamino]-1,2-dihydro-3H-1,2,5,7-tetraazainden-3-one]",< 10 nM,100 to 500 nM,500 to 1000 nM,–,–,–
"C=CCn1c(=O)c2cnc(Nc3ccc(OC(F)(F)F)cc3)nc2n1-c1cccc(NC2CCNCC2)n1 [Compound 135, 1-{6-[(piperidin-4-yl)amino]pyridin-2-yl}-2-(prop-2-en-1-yl)-6-{[4-(trifluoromethoxy)phenyl]amino}-1H,2H,3H-pyrazolo[3,4-d]pyrimidin-3-one]",< 10 nM,100 to 500 nM,500 to 1000 nM,–,–,–
"C=CCn1c(=O)c2cnc(Nc3ccc4nccn4c3)nc2n1-c1cccc(OC2CCNCC2)n1 [Compound 324, 6-(1,3a-diaza-5-indenylamino)-2-allyl-1-[6-(4-piperidyloxy)-2-pyridyl]-1,2-dihydro-3H-1,2,5,7-tetraazainden-3-one]",< 10 nM,20 to 100 nM,> 1000 nM,–,–,–
"C=CCn1c(=O)c2cnc(Nc3cnn(CC(C)(C)F)c3)nc2n1-c1cccc(N(C)C2CCNCC2)n1 [Compound 183, 1-[6-(N-methyl-N-4-piperidylamino)-2-pyridyl]-2-allyl-6-[1-(2-fluoro-2-methylpropyl)-4-pyrazolylamino]-1,2-dihydro-3H-1,2,5,7-tetraazainden-3-one]",–,–,–,< 10 nM,> 500 nM,> 1000 nM
